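Method: 48-hour compound exposure of cells in 96-well plates, five concentrations, linear interpolation of endpoints. Here, GI50 denotes the concentration required for 50% inhibition of growth. TGI denotes the concentration required for complete inhibition of growth.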
What was measured:
Test in all cases: inhibition of tumour cell growth, NCI panel, 48 h
UO-31 renal = system: UO-31 renal
MALME-3M melanoma = system: MALME-3M melanoma
NCI/ADR-RES ovarian = system: NCI/ADR-RES ovarian
IGROV1 ovarian = system: IGROV1 ovarian
SK-MEL-28 melanoma = system: SK-MEL-28 melanoma
SK-OV-3 ovarian = system: SK-OV-3 ovarian
NCI-H226 lung = system: NCI-H226 lung
786-0 renal = system: 786-0 renal
EKVX NSCLC = system: EKVX NSCLC
HT29 colon = system: HT29 colon
MOLT-4 leukemia = system: MOLT-4 leukemia
M14 melanoma = system: M14 melanoma
HOP-92 NSCLC = system: HOP-92 NSCLC
OVCAR-8 ovarian = system: OVCAR-8 ovarian
SN12C renal = system: SN12C renal
PC-3 prostate = system: PC-3 prostate
OVCAR-4 ovarian = system: OVCAR-4 ovarian
HL-60(TB) leukemia = system: HL-60(TB) leukemia
A549 NSCLC = system: A549 NSCLC
MCF7 breast = system: MCF7 breast
ACHN renal = system: ACHN renal
T-47D breast = system: T-47D breast
SF-539 CNS = system: SF-539 CNS
UACC-257 melanoma = system: UACC-257 melanoma
SF-295 CNS = system: SF-295 CNS
SK-MEL-5 melanoma = system: SK-MEL-5 melanoma
NCI-H460 lung = system: NCI-H460 lung
SNB-75 CNS = system: SNB-75 CNS
LOX IMVI melanoma = system: LOX IMVI melanoma
HOP-62 NSCLC = system: HOP-62 NSCLC
OVCAR-3 ovarian = system: OVCAR-3 ovarian
SR leukemia = system: SR leukemia
DU-145 prostate = system: DU-145 prostate
SNB-19 CNS = system: SNB-19 CNS
MDA-MB-435 = system: MDA-MB-435
UACC-62 melanoma = system: UACC-62 melanoma
OVCAR-5 ovarian = system: OVCAR-5 ovarian
RXF 393 renal = system: RXF 393 renal
A498 renal = system: A498 renal
BT-549 breast = system: BT-549 breast
HS 578T breast = system: HS 578T breast
COLO 205 colon = system: COLO 205 colon
TK-10 renal = system: TK-10 renal
HCC-2998 colon = system: HCC-2998 colon
CCRF-CEM leukemia = system: CCRF-CEM leukemia
U251 CNS = system: U251 CNS
SW-620 colon = system: SW-620 colon
SK-MEL-2 melanoma = system: SK-MEL-2 melanoma
HCT-15 colon = system: HCT-15 colon
K-562 leukemia = system: K-562 leukemia
HCT-116 colon = system: HCT-116 colon
MDA-MB-231 breast = system: MDA-MB-231 breast
KM12 colon = system: KM12 colon
NCI-H23 lung = system: NCI-H23 lung
RPMI-8226 leukemia = system: RPMI-8226 leukemia
SF-268 CNS = system: SF-268 CNS

Structure (SMILES): CCC(=O)O[C@@H]([C@H](C)[C@H]1OC(CC)=C(C)C(=O)[C@@H]1C)[C@@H](C)C(=O)CC
- GI50 (UO-31 renal): > 100 µM
- TGI (UO-31 renal): > 100 µM
- GI50 (MALME-3M melanoma): > 100 µM
- TGI (MALME-3M melanoma): > 100 µM
- GI50 (NCI/ADR-RES ovarian): 31.7 µM
- TGI (NCI/ADR-RES ovarian): > 100 µM
- GI50 (IGROV1 ovarian): 19.9 µM
- TGI (IGROV1 ovarian): > 100 µM
- GI50 (SK-MEL-28 melanoma): > 100 µM
- TGI (SK-MEL-28 melanoma): > 100 µM
- GI50 (SK-OV-3 ovarian): > 100 µM
- TGI (SK-OV-3 ovarian): > 100 µM
- GI50 (NCI-H226 lung): > 100 µM
- TGI (NCI-H226 lung): > 100 µM
- GI50 (786-0 renal): > 100 µM
- TGI (786-0 renal): > 100 µM
- GI50 (EKVX NSCLC): > 100 µM
- TGI (EKVX NSCLC): > 100 µM
- GI50 (HT29 colon): 53.6 µM
- TGI (HT29 colon): > 100 µM
- GI50 (MOLT-4 leukemia): 60 µM
- TGI (MOLT-4 leukemia): > 100 µM
- GI50 (M14 melanoma): > 100 µM
- TGI (M14 melanoma): > 100 µM
- GI50 (HOP-92 NSCLC): > 100 µM
- TGI (HOP-92 NSCLC): > 100 µM
- GI50 (OVCAR-8 ovarian): > 100 µM
- TGI (OVCAR-8 ovarian): > 100 µM
- GI50 (SN12C renal): > 100 µM
- TGI (SN12C renal): > 100 µM
- GI50 (PC-3 prostate): 59.6 µM
- TGI (PC-3 prostate): > 100 µM
- GI50 (OVCAR-4 ovarian): 40.8 µM
- TGI (OVCAR-4 ovarian): > 100 µM
- GI50 (HL-60(TB) leukemia): 37.4 µM
- TGI (HL-60(TB) leukemia): > 100 µM
- GI50 (A549 NSCLC): > 100 µM
- TGI (A549 NSCLC): > 100 µM
- GI50 (MCF7 breast): > 100 µM
- TGI (MCF7 breast): > 100 µM
- GI50 (ACHN renal): > 100 µM
- TGI (ACHN renal): > 100 µM
- GI50 (T-47D breast): 23.6 µM
- TGI (T-47D breast): > 100 µM
- GI50 (SF-539 CNS): > 100 µM
- TGI (SF-539 CNS): > 100 µM
- GI50 (UACC-257 melanoma): > 100 µM
- TGI (UACC-257 melanoma): > 100 µM
- GI50 (SF-295 CNS): > 100 µM
- TGI (SF-295 CNS): > 100 µM
- GI50 (SK-MEL-5 melanoma): 53.6 µM
- TGI (SK-MEL-5 melanoma): > 100 µM
- GI50 (NCI-H460 lung): 78.7 µM
- TGI (NCI-H460 lung): > 100 µM
- GI50 (SNB-75 CNS): > 100 µM
- TGI (SNB-75 CNS): > 100 µM
- GI50 (LOX IMVI melanoma): > 100 µM
- TGI (LOX IMVI melanoma): > 100 µM
- GI50 (HOP-62 NSCLC): > 100 µM
- TGI (HOP-62 NSCLC): > 100 µM
- GI50 (OVCAR-3 ovarian): 0.0316 µM
- TGI (OVCAR-3 ovarian): 0.751 µM
- GI50 (SR leukemia): 92.4 µM
- TGI (SR leukemia): > 100 µM
- GI50 (DU-145 prostate): > 100 µM
- TGI (DU-145 prostate): > 100 µM
- GI50 (SNB-19 CNS): > 100 µM
- TGI (SNB-19 CNS): > 100 µM
- GI50 (MDA-MB-435): > 100 µM
- TGI (MDA-MB-435): > 100 µM
- GI50 (UACC-62 melanoma): 60.8 µM
- TGI (UACC-62 melanoma): > 100 µM
- GI50 (OVCAR-5 ovarian): 32.7 µM
- TGI (OVCAR-5 ovarian): > 100 µM
- GI50 (RXF 393 renal): > 100 µM
- TGI (RXF 393 renal): > 100 µM
- GI50 (A498 renal): 88.9 µM
- TGI (A498 renal): > 100 µM
- GI50 (BT-549 breast): 90.2 µM
- TGI (BT-549 breast): > 100 µM
- GI50 (HS 578T breast): 96.8 µM
- TGI (HS 578T breast): > 100 µM
- GI50 (COLO 205 colon): 68.6 µM
- TGI (COLO 205 colon): > 100 µM
- GI50 (TK-10 renal): > 100 µM
- TGI (TK-10 renal): > 100 µM
- GI50 (HCC-2998 colon): 0.183 µM
- TGI (HCC-2998 colon): 47 µM
- GI50 (CCRF-CEM leukemia): > 100 µM
- TGI (CCRF-CEM leukemia): > 100 µM
- GI50 (U251 CNS): > 100 µM
- TGI (U251 CNS): > 100 µM
- GI50 (SW-620 colon): > 100 µM
- TGI (SW-620 colon): > 100 µM
- GI50 (SK-MEL-2 melanoma): > 100 µM
- TGI (SK-MEL-2 melanoma): > 100 µM
- GI50 (HCT-15 colon): > 100 µM
- TGI (HCT-15 colon): > 100 µM
- GI50 (K-562 leukemia): 61.6 µM
- TGI (K-562 leukemia): > 100 µM
- GI50 (HCT-116 colon): 55.6 µM
- TGI (HCT-116 colon): > 100 µM
- GI50 (MDA-MB-231 breast): > 100 µM
- TGI (MDA-MB-231 breast): > 100 µM
- GI50 (KM12 colon): 60.1 µM
- TGI (KM12 colon): > 100 µM
- GI50 (NCI-H23 lung): 37.8 µM
- TGI (NCI-H23 lung): > 100 µM
- GI50 (RPMI-8226 leukemia): 66.8 µM
- TGI (RPMI-8226 leukemia): > 100 µM
- GI50 (SF-268 CNS): > 100 µM
- TGI (SF-268 CNS): > 100 µM

Reference: PubChem BioAssay (NCI)
